Legend:
Assay type in all cases: in vivo
[1] = tested on: Matricaria inodora; experiment: Pre-emergence herbicidal action, MATIN; design: key to Herbicidal action against MATIN: % activity: 100 = plants have died, 0 = like control plants; conditions: for herbicidal action MATIN: dosage 320 g/ha
Source text: (§1) 1. Pre-Emergence Herbicidal Action Against Harmful Plants Seeds of monocotyledonous and dicotyledonous weed plants and crop plants are laid out in sandy loam soil in wood-fiber pots and covered with soil. The compounds of the invention, formulated in the form of wettable powders (WP) or as emulsion concentrates (EC), are then applied to the surface of the covering soil in the form of an aqueous suspension or emulsion at a water application rate equating to 600 to 800 l/ha, with addition of 0.2% wetting agent. After the treatment, the pots are placed in a greenhouse and kept under good growth conditions for the trial plants. The damage to the test plants is scored visually after a test period of 3 weeks by comparison with untreated controls (herbicidal activity in percent (%): 100% activity=the plants have died, 0% activity=like control plants). […] The tables below illustrate, in an exemplary manner, the […] herbicidal action of the compounds according to the invention, the herbicidal activity being stated in percent. [table] In the experiments that follow, herbicidal action of numerous inventive compounds and the known compounds that are structurally closest from D1 (WO 2012/028579 A1) and D2 (WO 2018/202535 A1) were compared under the above-specified conditions by the pre-emergence and post-emergence method. The example numbers given in the tables relate to the compounds disclosed in the respective documents. In addition to the compounds disclosed in D1 and D2, the following compounds V-1 to V-14 that are encompassed by D1 or D2 but are not compounds specified therein were used in the comparative experiments: • V-1: 2-(methylsulfanyl)-3-(methylsulfinyl)-N-(1-methyl-1H-tetrazol-5-yl)-4-(trifluoromethyl)benzamide • V-2: 2-(methylsulfanyl)-3-(methylsulfonyl)-N-(1-methyl-1H-tetrazol-5-yl)-4-(trifluoromethyl)benzamide • V-3: 2,3-bis(ethylsulfanyl)-N-(1-methyl-1H-tetrazol-5-yl)-4-(trifluoromethyl)benzamide • V-4: 2-chloro-3-(ethylsulfanyl)-N-(1-methyl-1H-tetrazol-5-yl)-4-(trifluoromethyl)benzamide • V-5: 2-chloro-4-iodo-3-(methylsulfanyl)-N-(1-methyl-1H-tetrazol-5-yl)benzamide • V-6: 2-chloro-4-iodo-3-(methylsulfinyl)-N-(1-methyl-1H-tetrazol-5-yl)benzamide • V-7: 2-chloro-4-iodo-3-(methylsulfonyl)-N-(1-methyl-1H-tetrazol-5-yl)benzamide • V-8: 2-bromo-3-(methylsulfanyl)-N-(1-methyl-1H-tetrazol-5-yl)-4-(trifluoromethyl)benzamide • V-9: 2-bromo-3-(methylsulfinyl)-N-(1-methyl-1H-tetrazol-5-yl)-4-(trifluoromethyl)benzamide • V-10: 2-bromo-3-(methylsulfonyl)-N-(1-methyl-1H-tetrazol-5-yl)-4-(trifluoromethyl)benzamide • V-11: 2-bromo-3-(ethylsulfanyl)-N-(1-methyl-1H-tetrazol-5-yl)-4-(trifluoromethyl)benzamide • V-12: 2-bromo-3-(ethylsulfinyl)-N-(1-methyl-1H-tetrazol-5-yl)-4-(trifluoromethyl)benzamide • V-13: 2-bromo-3-(ethylsulfonyl)-N-(1-methyl-1-1H-tetrazol-5-yl)-4-(trifluoromethyl)benzamide • V-14: 2-cyclopropyl-3-(ethylsulfanyl)-N-(1-methyl-1H-tetrazol-5-yl)-4-(trifluoromethyl)benzamide Herbicidal Pre-Emergence Action: […]

[2] = tested on: Veronica persica; experiment: Pre-emergence herbicidal action, VERPE; design: key to Herbicidal action against VERPE: % activity: 100 = plants have died, 0 = like control plants; conditions: for herbicidal action VERPE: dosage 320 g/ha
Source text: as §1

[3] = tested on: Pharbitis purpurea; experiment: Post-emergence herbicidal action, PHBPU; conditions: for Herbicidal action against PHBPU: post-emergence, dosage 80 g/ha
Method: (§2) [table] 2. Post-Emergence Herbicidal Action Against Harmful Plants Seeds of monocotyledonous and dicotyledonous weed and crop plants are laid out in sandy loam soil in wood-fiber pots, covered with soil and cultivated in a greenhouse under good growth conditions. 2 to 3 weeks after sowing, the test plants are treated at the one-leaf stage. The compounds of the invention, formulated in the form of wettable powders (WP) or as emulsion concentrates (EC), are then sprayed onto the green parts of the plants in the form of an aqueous suspension or emulsion at a water application rate equating to 600 to 800 l/ha, with addition of 0.2% wetting agent. After the test plants have been left to stand in the greenhouse under optimal growth conditions for about 3 weeks, the action of the preparations is assessed visually in comparison to untreated controls (herbicidal action in percent (%): 100% activity=the plants have died, 0% activity=like control plants). […] The tables below illustrate, in an exemplary manner, the post-emergence herbicidal action of the compounds according to the invention, the herbicidal activity being stated in percent. In the experiments that follow, herbicidal action of numerous inventive compounds and the known compounds that are structurally closest from D1 (WO 2012/028579 A1) and D2 (WO 2018/202535 A1) were compared under the above-specified conditions by the pre-emergence and post-emergence method. The example numbers given in the tables relate to the compounds disclosed in the respective documents. In addition to the compounds disclosed in D1 and D2, the following compounds V-1 to V-14 that are encompassed by D1 or D2 but are not compounds specified therein were used in the comparative experiments: • V-1: 2-(methylsulfanyl)-3-(methylsulfinyl)-N-(1-methyl-1H-tetrazol-5-yl)-4-(trifluoromethyl)benzamide • V-2: 2-(methylsulfanyl)-3-(methylsulfonyl)-N-(1-methyl-1H-tetrazol-5-yl)-4-(trifluoromethyl)benzamide • V-3: 2,3-bis(ethylsulfanyl)-N-(1-methyl-1H-tetrazol-5-yl)-4-(trifluoromethyl)benzamide • V-4: 2-chloro-3-(ethylsulfanyl)-N-(1-methyl-1H-tetrazol-5-yl)-4-(trifluoromethyl)benzamide • V-5: 2-chloro-4-iodo-3-(methylsulfanyl)-N-(1-methyl-1H-tetrazol-5-yl)benzamide • V-6: 2-chloro-4-iodo-3-(methylsulfinyl)-N-(1-methyl-1H-tetrazol-5-yl)benzamide • V-7: 2-chloro-4-iodo-3-(methylsulfonyl)-N-(1-methyl-1H-tetrazol-5-yl)benzamide • V-8: 2-bromo-3-(methylsulfanyl)-N-(1-methyl-1H-tetrazol-5-yl)-4-(trifluoromethyl)benzamide • V-9: 2-bromo-3-(methylsulfinyl)-N-(1-methyl-1H-tetrazol-5-yl)-4-(trifluoromethyl)benzamide • V-10: 2-bromo-3-(methylsulfonyl)-N-(1-methyl-1H-tetrazol-5-yl)-4-(trifluoromethyl)benzamide • V-11: 2-bromo-3-(ethylsulfanyl)-N-(1-methyl-1H-tetrazol-5-yl)-4-(trifluoromethyl)benzamide • V-12: 2-bromo-3-(ethylsulfinyl)-N-(1-methyl-1H-tetrazol-5-yl)-4-(trifluoromethyl)benzamide • V-13: 2-bromo-3-(ethylsulfonyl)-N-(1-methyl-1-1H-tetrazol-5-yl)-4-(trifluoromethyl)benzamide • V-14: 2-cyclopropyl-3-(ethylsulfanyl)-N-(1-methyl-1H-tetrazol-5-yl)-4-(trifluoromethyl)benzamide Herbicidal Pre-Emergence Action: […]

[4] = tested on: Viola tricolor; experiment: Pre-emergence herbicidal action, VIOTR; design: key to Herbicidal action against VIOTR: % activity: 100 = plants have died, 0 = like control plants; conditions: for herbicidal action VIOTR: dosage 320 g/ha
Source text: as §1

[5] = tested on: Matricaria inodora; experiment: Post-emergence herbicidal action, MATIN; design: key: % herbicidal action vs untreated; 100 = plants died, 0 = like control; conditions: for Herbicidal action against MATIN: post-emergence, dosage 80 g/ha
Method: as §2

[6] = tested on: Amaranthus retroflexus; experiment: Post-emergence herbicidal action, AMARE; design: key: % herbicidal action vs untreated; 100 = plants died, 0 = like control; conditions: for Herbicidal action against AMARE: post-emergence
Method: as §2

[7] = tested on: Echinochloa crus-galli; experiment: Post-emergence herbicidal action, ECHCG; design: key: % herbicidal action vs untreated; 100 = plants died, 0 = like control; conditions: for Herbicidal action against ECHCG: post-emergence
Method: as §2

[8] = tested on: Echinochloa crus-galli; experiment: Pre-emergence herbicidal action, ECHCG; conditions: for herbicidal action ECHCG: dosage 320 g/ha
Source text: as §1

[9] = tested on: Stellaria media; experiment: Post-emergence herbicidal action, STEME; design: key: % herbicidal action vs untreated; 100 = plants died, 0 = like control; conditions: for Herbicidal action against STEME: post-emergence
Method: as §2

[10] = tested on: Setaria viridis; experiment: Post-emergence herbicidal action, SETVI; design: key: % herbicidal action vs untreated; 100 = plants died, 0 = like control; conditions: post-emergence
Method: as §2

[11] = tested on: Veronica persica; experiment: Post-emergence herbicidal action, VERPE; design: key: % herbicidal action vs untreated; 100 = plants died, 0 = like control; conditions: for Herbicidal action against VERPE: post-emergence
Method: as §2

[12] = tested on: Viola tricolor; experiment: Post-emergence herbicidal action, VIOTR; design: key: % herbicidal action vs untreated; 100 = plants died, 0 = like control; conditions: for Herbicidal action against VIOTR: post-emergence
Method: as §2

[13] = tested on: Amaranthus retroflexus; experiment: Pre-emergence herbicidal action, AMARE; design: key to Herbicidal action against AMARE: % activity: 100 = plants have died, 0 = like control plants; conditions: for herbicidal action AMARE: dosage 320 g/ha
Source text: as §1

[14] = tested on: Stellaria media; experiment: Pre-emergence herbicidal action, STEME; design: key to Herbicidal action against STEME: % activity: 100 = plants have died, 0 = like control plants; conditions: for herbicidal action STEME: dosage 320 g/ha
Source text: as §1

[15] = tested on: Abutilon theophrasti; experiment: Pre-emergence herbicidal action, ABUTH; conditions: dosage 320 g/ha
Source text: as §1

[16] = tested on: Abutilon theophrasti; experiment: Post-emergence herbicidal action, ABUTH; design: key: % herbicidal action vs untreated; 100 = plants died, 0 = like control; conditions: for Herbicidal action against ABUTH: post-emergence
Method: as §2

[17] = tested on: Avena fatua; experiment: Post-emergence herbicidal action, AVEFA; design: key: % herbicidal action vs untreated; 100 = plants died, 0 = like control; conditions: Dosage 80 g/ha
Method: as §2

[18] = comparative experiment, 20 g of a.i./ha
[19] = comparative experiment, 5 g of a.i./ha

SMILES	herbicidal action MATIN [1]	herbicidal action VERPE [2]	Herbicidal action against PHBPU [3]	herbicidal action VIOTR [4]	Herbicidal action against MATIN [5]	Herbicidal action against AMARE ([6]; dosage 80 g/ha)	Herbicidal action against ECHCG ([7]; dosage 80 g/ha)	herbicidal action ECHCG [8]	Herbicidal action against STEME ([9]; dosage 80 g/ha)	Herbicidal action against SETVI ([10]; dosage 80 g/ha)	Herbicidal action against VERPE ([11]; dosage 80 g/ha)	Herbicidal action against VIOTR ([12]; dosage 80 g/ha)	herbicidal action AMARE [13]	herbicidal action STEME [14]	herbicidal action ABUTH [15]	Herbicidal action against ABUTH ([16]; dosage 80 g/ha)	other results
COc1c(C(=O)Nc2nnnn2C)ccc(C(F)(F)F)c1CS(C)(=O)=O [Example 1-136]	90%	100%	90	80%	90	90	90	100%	100	90	100	90	100%	80%	100%		
CSCc1c(S(C)(=O)=O)ccc(C(=O)Nc2nnnn2C)c1Cl [Example 1-278]		90%	90			100	100	90%	90	100		100	100%	80%	90%	90	
Cn1nnnc1NC(=O)c1ccc(C(F)(F)F)c(CS(=O)(=O)CC(F)(F)F)c1Cl [Example 1-313]			90		90	90			100	80	80	80	100%	90%	100%	100	
CCn1nnnc1NC(=O)c1ccc(S(C)(=O)=O)c(CSC)c1Cl [Example 2-278]	90%	100%											90%		100%		herbicidal action AVEFA [17]: 100; herbicidal action PHBPU ([3]; Dosage 80 g/ha): 80; herbicidal action MATIN ([5]; Dosage 80 g/ha): 90; herbicidal action AMARE ([6]; Dosage 80 g/ha): 90; herbicidal action ECHCG ([7]; Dosage 80 g/ha): 100; herbicidal action STEME ([9]; Dosage 80 g/ha): 80; herbicidal action ABUTH ([16]; Dosage 80 g/ha): 90; herbicidal action VERPE ([11]; Dosage 80 g/ha): 100; herbicidal action VIOTR ([12]; Dosage 80 g/ha): 100
CCCn1nnnc1NC(=O)c1ccc(C)c(CSC)c1Cl [Example 3-287]	100%	90%	80	80%	100	100	90	100%	100			90	100%	90%		90	
CCSc1c(C(=O)Nc2nnnn2C)ccc(C(F)(F)F)c1SCC [Example V-3, 2,3-bis(ethylsulfanyl)-N-(1-methyl-1H-tetrazol-5-yl)-4-(trifluoromethyl)benzamide, reference compound]																	Herbicidal action against MATIN [1, 18]: 0; Herbicidal action against VERPE [2, 18]: 0; Herbicidal action against VIOTR [4, 18]: 0; Herbicidal action against AMARE [6, 19]: 0; Herbicidal action against ECHCG [7, 19]: 0; pest or weed control at 20 g/ha ([8]; Echinochloa crus-galli, 504 h, comparative experiment, 20 g of a.i./ha, read-out: Herbicidal action against ECHCG): 0%; Herbicidal action against STEME [9, 19]: 0; Herbicidal action against ABUTH [16, 19]: 0; Herbicidal action against SETVI [10, 19]: 0; Herbicidal action against VERPE [11, 19]: 0; Herbicidal action against VIOTR [12, 19]: 0; Herbicidal action against AMARE [13, 18]: 0; Herbicidal action against STEME [14, 18]: 0

Reference: patent US12492173B2, “Herbicidal substituted N-tetrazolyl aryl carboxamides” (Bayer Aktiengesellschaft, priority 2019, dated 2025)
